Measured values from PMC3928115, “Organophosphate-Induced Changes in the PKA Regulatory Function of Swiss Cheese/NTE Lead to Behavioral Deficits and Neurodegeneration” (PLoS ONE, 2014).

Molecular target: T1, Swiss Cheese (SWS) (Drosophila melanogaster, UniProt Q9U969)
T1 construct: native full-length SWS in fly head homogenate, not purified; sws1 null mutant used as control
Assay: esterase activity in fly head homogenates
Assay type: biochemical
Details: untreated flies; activity very low in sws1 null, raised to about 160% with SWS overexpression

T1 sequence (Q9U969 whole entry): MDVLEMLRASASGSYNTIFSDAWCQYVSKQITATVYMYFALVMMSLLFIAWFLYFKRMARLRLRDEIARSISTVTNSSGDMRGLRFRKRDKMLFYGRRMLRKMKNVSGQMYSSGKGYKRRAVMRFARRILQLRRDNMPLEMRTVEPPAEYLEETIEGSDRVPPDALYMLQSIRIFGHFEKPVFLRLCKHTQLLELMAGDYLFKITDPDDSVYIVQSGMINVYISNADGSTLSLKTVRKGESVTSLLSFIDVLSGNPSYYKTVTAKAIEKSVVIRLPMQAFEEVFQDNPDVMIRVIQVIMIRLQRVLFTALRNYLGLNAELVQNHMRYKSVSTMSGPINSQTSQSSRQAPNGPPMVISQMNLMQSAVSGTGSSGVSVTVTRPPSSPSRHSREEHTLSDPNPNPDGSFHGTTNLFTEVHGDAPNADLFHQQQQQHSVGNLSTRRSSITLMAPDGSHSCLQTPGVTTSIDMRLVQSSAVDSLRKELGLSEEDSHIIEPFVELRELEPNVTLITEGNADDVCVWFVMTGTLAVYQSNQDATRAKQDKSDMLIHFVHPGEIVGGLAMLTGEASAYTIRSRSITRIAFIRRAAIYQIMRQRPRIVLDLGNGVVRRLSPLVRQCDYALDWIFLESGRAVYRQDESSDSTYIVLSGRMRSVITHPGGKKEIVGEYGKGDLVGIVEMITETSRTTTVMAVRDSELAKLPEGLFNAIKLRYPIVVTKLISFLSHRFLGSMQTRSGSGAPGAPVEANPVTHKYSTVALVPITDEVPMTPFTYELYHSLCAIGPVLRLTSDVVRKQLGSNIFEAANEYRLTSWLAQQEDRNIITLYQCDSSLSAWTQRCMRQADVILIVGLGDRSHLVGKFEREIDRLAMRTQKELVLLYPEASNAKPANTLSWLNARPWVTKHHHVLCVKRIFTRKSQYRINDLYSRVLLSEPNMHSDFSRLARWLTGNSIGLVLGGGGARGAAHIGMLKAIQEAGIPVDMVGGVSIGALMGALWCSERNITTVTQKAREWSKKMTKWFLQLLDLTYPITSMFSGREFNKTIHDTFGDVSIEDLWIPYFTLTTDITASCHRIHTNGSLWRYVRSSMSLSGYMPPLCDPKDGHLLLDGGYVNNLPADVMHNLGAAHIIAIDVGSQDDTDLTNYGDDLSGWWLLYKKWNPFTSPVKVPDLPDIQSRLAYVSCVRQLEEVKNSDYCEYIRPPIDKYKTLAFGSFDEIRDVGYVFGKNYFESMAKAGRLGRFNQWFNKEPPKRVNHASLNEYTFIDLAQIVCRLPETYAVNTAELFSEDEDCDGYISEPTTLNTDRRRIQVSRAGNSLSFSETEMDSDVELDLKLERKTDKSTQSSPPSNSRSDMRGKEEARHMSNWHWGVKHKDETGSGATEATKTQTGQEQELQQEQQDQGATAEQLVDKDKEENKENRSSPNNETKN

## CCCCC(=O)Oc1ccccc1 [phenyl valerate]
  esterase activity in fly head homogenates: hydrolyzing activity against phenyl valerate, a standard substrate to detect NTE activity
